Experimental data as given in US20250333683A1, “A METHOD AND SYSTEM FOR SIMULATING STEM CELL DIFFERENTIATION DYNAMICS” (CellVoyant Technologies Limited, priority 2024, published 2025).

Tested on: human pluripotent cells (hPCs)
Assay: Observed ground truth mesoderm differentiation (Brachyury immunofluorescence)
Format: cell-based
Experimental: Stem cell differentiation: To differentiate cells into cardiac mesoderm cells, cardiomyocytes and/or endothelial intermediate, protocol described in Giacomelli et al., [1] was adapted.
Briefly, human pluripotent cells (hPCs) were seeded, as a monolayer culture, into 96-well imaging plate in BPLE basal media for twenty-four hours, with the bovine serum albumin (BSA) polyvinylalcohol essential lipids (BPLE) basal media being supplemented with 20 ng/ml of ActinvinA (Peprotech, 120-14E-2 μG), 20 ng/ml of BMP4 (Peprotech, 120-05ET-2 μG) and varying concentrations of CHIR99201 (Selleckchem, S1263). CHIR99021 was removed randomly after either 24 or 48 hours of differentiation, to determine the effect of CHIR99021 on mesoderm differentiation rates.
The day after, the primary antibody was washed out, and the cells were incubated with the fluorescence-conjugated secondary antibody (1:1000) for 1 hour at room temperature. DAPI solution was used to detect nuclei.
Ground truth for fate forecasting was inferred by using Cellpose to segment individual cell nuclei on the DAPI channel. A Multi-Otsu threshold was carried out on the Brachury channel to separate the images into foreground and background. The total number of nucleii detected was recorded and the two sets of masks were correlated to determine the proportion of cells that were positive for the immunofluorescence marker. […]

With `Cc1c[nH]c(-c2cnc(NCCNc3ccc(C#N)cn3)nc2-c2ccc(Cl)cc2Cl)n1` [CHIR99021] the “observed ground truth proportion of cells acquiring the mesodermal cell fate” value (CHIR99021 0.93 μM, applied for 24 hours) was “very low proportion” and the “observed ground truth amount of Brachury positive cells after removal of CHIR99021” value (CHIR99021 1.93 μM, removed after 48 hours) was “decrease in the amount of Brachury positive cells”.
